# Measured values taken from ChEMBL document CHEMBL3751822, “C1C2-linker substituted 1,5-naphthyridine analogues of oxabicyclooctane-linked NBTIs as broad-spectrum antibacterial agents (part 7)” (Medchemcomm, 2015).
# What was measured:
# Staphylococcus aureus [1] = assay: Antibacterial activity against Staphylococcus aureus Smith by micro-broth dilution method; format: functional
# Staphylococcus aureus [2] = assay: Antibacterial activity against methicillin resistant Staphylococcus aureus OIT971 by micro-broth dilution method; format: functional
# Streptococcus pneumoniae = assay: Antibacterial activity against Streptococcus pneumoniae IID553 by micro-broth dilution method; format: functional
# Enterococcus faecium = assay: Antibacterial activity against Enterococcus faecium VanA by micro-broth dilution method; format: functional; details: Enterococcus faecium, VanA; read-out: MIC
# Escherichia coli = assay: Antibacterial activity against Escherichia coli ATCC 25922 by micro-broth dilution method; format: functional; details: Escherichia coli, ATCC 25922; read-out: MIC
# Acinetobacter baumannii = assay: Antibacterial activity against Acinetobacter baumannii IID876 by micro-broth dilution method; format: functional; details: Acinetobacter baumannii, IID876; read-out: MIC
# Pseudomonas aeruginosa = assay: Antibacterial activity against Pseudomonas aeruginosa PAO1 by micro-broth dilution method; format: functional; details: Pseudomonas aeruginosa, PAO1; read-out: MIC
# [3] = target: Voltage-gated inwardly rectifying potassium channel KCNH2 (Homo sapiens, UniProt Q12809); assay: Displacement of MK499 from human ERG
# Staphylococcus aureus [4] = assay: Ratio of MIC for quinolone-resistant Staphylococcus aureus MS5935 to MIC for quinolone-sensitive Staphylococcus aureus MS5935; format: functional
# Staphylococcus aureus [5] = assay: Antibacterial activity against Staphylococcus aureus infected in iv dosed mouse; format: functional
# Staphylococcus aureus [6] = assay: Antibacterial activity against Staphylococcus aureus infected in po dosed mouse; format: functional
# [7] = Staphylococcus aureus, Smith, read-out: MIC
# [8] = Staphylococcus aureus, OIT971, read-out: MIC
# [9] = Streptococcus pneumoniae, IID553, read-out: MIC
# [10] = Staphylococcus aureus, iv, read-out: ED50
# [11] = Staphylococcus aureus, po, read-out: ED50
# Voltage-gated inwardly rectifying potassium channel KCNH2, sequence (Q12809 whole entry): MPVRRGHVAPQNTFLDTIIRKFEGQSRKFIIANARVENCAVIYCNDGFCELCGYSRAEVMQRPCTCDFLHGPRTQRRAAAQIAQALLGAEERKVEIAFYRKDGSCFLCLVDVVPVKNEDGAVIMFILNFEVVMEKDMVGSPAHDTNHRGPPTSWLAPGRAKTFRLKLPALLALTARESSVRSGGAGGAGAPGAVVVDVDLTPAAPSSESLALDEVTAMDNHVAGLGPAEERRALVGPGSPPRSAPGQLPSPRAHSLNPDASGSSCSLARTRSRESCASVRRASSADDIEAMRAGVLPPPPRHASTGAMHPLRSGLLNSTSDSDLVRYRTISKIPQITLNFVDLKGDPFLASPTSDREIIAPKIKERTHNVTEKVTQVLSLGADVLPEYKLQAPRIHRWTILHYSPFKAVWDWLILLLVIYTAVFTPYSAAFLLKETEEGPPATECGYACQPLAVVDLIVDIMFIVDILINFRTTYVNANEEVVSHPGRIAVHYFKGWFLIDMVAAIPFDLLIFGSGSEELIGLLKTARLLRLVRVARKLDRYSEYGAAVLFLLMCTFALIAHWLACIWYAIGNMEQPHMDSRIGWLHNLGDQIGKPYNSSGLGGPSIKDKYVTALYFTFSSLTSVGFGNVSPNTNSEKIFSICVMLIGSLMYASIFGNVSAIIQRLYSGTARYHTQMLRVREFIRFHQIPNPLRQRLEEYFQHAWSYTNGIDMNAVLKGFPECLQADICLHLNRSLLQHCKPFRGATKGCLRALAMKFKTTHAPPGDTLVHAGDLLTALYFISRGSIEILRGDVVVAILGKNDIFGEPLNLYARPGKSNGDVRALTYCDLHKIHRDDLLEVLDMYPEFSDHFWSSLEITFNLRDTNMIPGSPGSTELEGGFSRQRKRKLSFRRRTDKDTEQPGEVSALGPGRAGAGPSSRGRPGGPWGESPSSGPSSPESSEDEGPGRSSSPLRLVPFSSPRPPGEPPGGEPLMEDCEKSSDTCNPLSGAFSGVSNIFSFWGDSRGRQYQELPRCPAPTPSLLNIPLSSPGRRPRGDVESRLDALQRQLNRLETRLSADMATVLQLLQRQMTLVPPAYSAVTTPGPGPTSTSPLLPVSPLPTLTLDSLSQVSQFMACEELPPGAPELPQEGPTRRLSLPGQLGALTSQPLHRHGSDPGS
SMILES,MIC (Staphylococcus aureus [1]; [7]) [mg/L],MIC (Staphylococcus aureus [2]; [8]) [mg/L],MIC (Streptococcus pneumoniae; [9]) [mg/L],MIC (Enterococcus faecium) [mg/L],MIC (Escherichia coli) [mg/L],MIC (Acinetobacter baumannii) [mg/L],MIC (Pseudomonas aeruginosa) [mg/L],IC50 [3] [µM],Ratio (Staphylococcus aureus [4]),ED50 (Staphylococcus aureus [5]; [10]) [mg/kg],ED50 (Staphylococcus aureus [6]; [11]) [mg/kg],MIC (Staphylococcus aureus [1]) [mg/L],MIC (Staphylococcus aureus [2]) [mg/L],MIC (Streptococcus pneumoniae) [mg/L],ED50 (Staphylococcus aureus [5]) [mg/kg],ED50 (Staphylococcus aureus [6]) [mg/kg]
COc1ccc2ncc(F)c(C/C(=N/O)C34CCC(NCc5ccc6c(n5)NC(=O)CO6)(CC3)CO4)c2n1,16,16,16,16,16,16,16,5.4,<4,,,,,,,
CCOC(=O)C(CC12CCC(NCc3ccc4c(n3)NC(=O)CO4)(CC1)CO2)c1c(F)cnc2ccc(OC)nc12 (racemic),2,2,8,32,32,32,32,,,,,,,,,
COc1ccc2ncc(F)c(CC(=O)C34CCC(NCc5ccc6c(n5)NC(=O)CO6)(CC3)CO4)c2n1.Cl,,,,,,,,,,5.1,6.4,,,,,
"COc1ccc2ncc(F)c(CC(N)C34CCC(NCc5ccc6c(n5)NC(=O)CO6)(CC3)CO4)c2n1 (single isomer, unassigned; (+))",0.25,0.25,2,8,1,0.25,16,,,,,,,,,
COc1ccc2ncc(F)c(CC(F)C34CCC(NCc5ccc6c(n5)NC(=O)CO6)(CC3)CO4)c2n1 (racemic),0.25,0.25,1,8,8,8,8,,,,,,,,,
"COc1ccc2ncc(F)c(C(O)CC34CCC(NCc5ccc6c(n5)NC(=O)CO6)(CC3)CO4)c2n1 (single isomer, unassigned; (+))",,,,4,8,1,16,4,<4,,,0.13,0.13,1,,
COc1ccc2ncc(F)c(C(CC34CCC(NCc5ccc6c(n5)NC(=O)CO6)(CC3)CO4)C(=O)O)c2n1 (racemic),1,1,4,32,32,32,32,1,<4,,,,,,,
"COc1ccc2ncc(F)c(C(O)CC34CCC(NCc5ccc6c(n5)NC(=O)CO6)(CC3)CO4)c2n1.Cl (single isomer, unassigned; (-))",,,,,,,,,,,,,,,3.7,4.8
COc1ccc2ncc(F)c(C/C(=N\O)C34CCC(NCc5ccc6c(n5)NC(=O)CO6)(CC3)CO4)c2n1,0.5,0.5,2,2,2,2,2,1.6,<4,,,,,,,
"COc1ccc2ncc(F)c([C@H](O)[C@@H](O)C34CCC(NCc5ccc6c(n5)NC(=O)CO6)(CC3)CO4)c2n1 (single isomer, unassigned; (-))",1,1,8,16,16,2,64,36.1,<4,,,,,,,
CO/N=C(/Cc1c(F)cnc2ccc(OC)nc12)C12CCC(NCc3ccc4c(n3)NC(=O)CO4)(CC1)CO2,16,16,16,16,16,16,16,2.5,<4,,,,,,,
COc1ccc2ncc(F)c(C(CO)CC34CCC(NCc5ccc6c(n5)NC(=O)CO6)(CC3)CO4)c2n1 (racemic),1,1,2,16,32,16,32,,,,,,,,,
COc1ccc2ncc(F)c(C(C)(O)CC34CCC(NCc5ccc6c(n5)NC(=O)CO6)(CC3)CO4)c2n1 (racemic),1,1,4,16,32,32,32,,,,,,,,,
COc1ccc2ncc(F)c(CC(C)(O)C34CCC(NCc5ccc6c(n5)NC(=O)CO6)(CC3)CO4)c2n1 (racemic),0.06,0.06,0.5,4,8,2,32,6.1,<4,,,,,,,
COc1ccc2ncc(F)c(CC(NOC(C)=O)C34CCC(NCc5ccc6c(n5)NC(=O)CO6)(CC3)CO4)c2n1 (racemic),2,2,16,32,32,32,32,,,,,,,,,
"COc1ccc2ncc(F)c(C(O)CC34CCC(NCc5ccc6c(n5)NC(=O)CO6)(CC3)CO4)c2n1.Cl (single isomer, unassigned; (+))",,,,,,,,,,5.9,6.4,,,,,
